This assay has as its target T1, POLγA:G848S (Homo sapiens, UniProt P54098, G848S).
T1 sequence (P54098 1-1239 G848S): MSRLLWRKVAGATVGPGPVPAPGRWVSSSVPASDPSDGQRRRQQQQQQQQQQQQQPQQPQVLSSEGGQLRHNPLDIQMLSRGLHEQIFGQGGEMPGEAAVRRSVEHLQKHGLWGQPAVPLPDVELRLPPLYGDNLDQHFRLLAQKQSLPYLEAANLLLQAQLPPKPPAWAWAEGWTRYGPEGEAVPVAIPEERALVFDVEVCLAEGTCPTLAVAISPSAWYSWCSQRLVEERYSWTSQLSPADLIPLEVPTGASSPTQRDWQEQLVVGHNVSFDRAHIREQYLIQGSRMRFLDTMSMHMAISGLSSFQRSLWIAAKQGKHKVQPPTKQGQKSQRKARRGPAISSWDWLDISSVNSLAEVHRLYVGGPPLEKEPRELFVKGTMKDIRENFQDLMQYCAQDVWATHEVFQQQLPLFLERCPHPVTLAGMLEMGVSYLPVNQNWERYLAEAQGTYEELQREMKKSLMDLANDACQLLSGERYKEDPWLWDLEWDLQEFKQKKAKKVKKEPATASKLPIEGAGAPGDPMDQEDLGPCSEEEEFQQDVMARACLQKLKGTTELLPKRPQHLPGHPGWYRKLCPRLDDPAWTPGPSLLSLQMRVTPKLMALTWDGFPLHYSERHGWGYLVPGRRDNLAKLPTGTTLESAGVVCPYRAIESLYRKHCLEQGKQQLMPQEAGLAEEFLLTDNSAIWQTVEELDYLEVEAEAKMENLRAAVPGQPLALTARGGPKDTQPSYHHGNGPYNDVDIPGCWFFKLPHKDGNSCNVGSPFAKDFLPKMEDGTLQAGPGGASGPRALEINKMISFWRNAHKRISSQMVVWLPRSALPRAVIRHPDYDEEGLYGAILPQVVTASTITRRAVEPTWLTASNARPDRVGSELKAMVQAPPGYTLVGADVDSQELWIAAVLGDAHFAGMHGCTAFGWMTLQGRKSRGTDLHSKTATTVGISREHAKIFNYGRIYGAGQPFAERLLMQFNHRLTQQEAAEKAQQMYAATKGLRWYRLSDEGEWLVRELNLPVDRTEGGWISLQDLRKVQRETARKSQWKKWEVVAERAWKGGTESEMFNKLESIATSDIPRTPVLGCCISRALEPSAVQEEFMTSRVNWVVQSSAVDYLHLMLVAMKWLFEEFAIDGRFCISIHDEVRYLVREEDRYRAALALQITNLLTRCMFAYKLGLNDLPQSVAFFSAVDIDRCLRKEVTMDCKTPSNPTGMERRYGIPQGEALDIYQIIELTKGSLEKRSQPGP
T1 sequence (Q9UHN1 1-485 partner): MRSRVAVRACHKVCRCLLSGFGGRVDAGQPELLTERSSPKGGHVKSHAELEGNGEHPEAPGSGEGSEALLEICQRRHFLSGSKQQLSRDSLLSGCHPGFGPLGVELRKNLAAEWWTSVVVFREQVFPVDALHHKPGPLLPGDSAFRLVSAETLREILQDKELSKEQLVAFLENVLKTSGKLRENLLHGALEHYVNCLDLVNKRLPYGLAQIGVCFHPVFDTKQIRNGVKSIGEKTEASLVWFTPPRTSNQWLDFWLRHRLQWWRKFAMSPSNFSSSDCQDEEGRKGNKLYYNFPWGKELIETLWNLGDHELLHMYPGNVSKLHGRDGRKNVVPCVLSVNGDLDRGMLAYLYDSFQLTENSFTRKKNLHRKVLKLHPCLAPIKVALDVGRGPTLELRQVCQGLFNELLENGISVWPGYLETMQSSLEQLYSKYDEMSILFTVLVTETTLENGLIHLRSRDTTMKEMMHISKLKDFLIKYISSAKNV
The assay is described as follows: DNA polymerization assay, POLγA:G848S mutant. The format is biochemical. The following applies: stimulation of polymerase activity, primed M13mp18 ssDNA, 37° C. 2 hours; read-out: G848S AC50.
The AC50 is the concentration at which the activity in the assay is half-maximal. Regarding `Cc1nc2cc(NS(=O)(=O)c3cc(C)c(Cl)cc3C)ccc2o1` [Example 75, 4-chloro-2,5-dimethyl-N-(2-methylbenzo[d]oxazol-5-yl)benzenesulfonamide], the concentration at half-maximal activity (AC50) was greater than 100 µM. On to `Cc1cc(S(=O)(=O)Nc2cccc(-c3ncc(CO)s3)c2)c(C)cc1Cl` [Example 89, 4-chloro-N-(3-(5-(hydroxymethyl)thiazol-2-yl)phenyl)-2,5-dimethylbenzenesulfonamide], for which the AC50 was 3 µM. The value for `Cc1cc(S(=O)(=O)Nc2ccc(-c3ncc(CN(C)C)s3)cc2)c(C)cc1Cl` [Example 86, 4-chloro-N-(4-(5-((dimethylamino)methyl)thiazol-2-yl)phenyl)-2,5-dimethylbenzenesulfonamide] was greater than 100 µM; that for `Cc1cnc(-c2ccc(NS(=O)(=O)c3cc(C)c(Cl)cc3C)cc2)s1` [Example 83, 4-chloro-2,5-dimethyl-N-(4-(5-methylthiazol-2-yl)phenyl)benzenesulfonamide] was 3 µM; that for `Cc1cc(S(=O)(=O)Nc2cc(-c3ccccc3)no2)c(C)cc1Cl` [Example 84, 4-chloro-2,5-dimethyl-N-(3-phenylisoxazol-5-yl)benzenesulfonamide] was greater than 10 µM. Then `Cc1cc(S(=O)(=O)Nc2csc(-c3ccnn3C)n2)c(C)cc1Cl` [Example 182, 4-chloro-2,5-dimethyl-N-(2-(1-methyl-1H-pyrazol-5-yl)thiazol-4-yl)benzenesulfonamide], with 0.9 µM; and `COC(=O)c1cnc(-c2cccc(NS(=O)(=O)c3cc(C)c(Cl)cc3C)c2)s1` [Example 88, methyl 2-(3-((4-chloro-2,5-dimethylphenyl)sulfonamido)phenyl) thiazole-5-carboxylate], with greater than 100 µM; and `Cc1cc(S(=O)(=O)NC2CCOc3c(Cl)cccc32)c(C)cc1Cl` (stereo not drawn) [Example 82, 4-chloro-N-(8-chlorochroman-4-yl)-2,5-dimethylbenzenesulfonamide], with greater than 10 µM.

For `Cc1cc(S(=O)(=O)Nc2cccc(C(=O)N3CCCN(C(=O)C(C)C)CC3)c2)c(C)cc1Cl` [Example 91, 4-chloro-N-(3-(4-isobutyryl-1,4-diazepane-1-carbonyl)phenyl)-2,5-dimethylbenzenesulfonamide], the AC50 is greater than 100 µM. With `Cc1cc(S(=O)(=O)Nc2ccc3nc(-c4ccccc4)sc3c2)c(C)cc1Cl` [Example 74, 4-chloro-2,5-dimethyl-N-(2-phenylbenzo[d]thiazol-6-yl)benzenesulfonamide], the AC50 was greater than 100 µM. In the case of `Cc1cc(S(=O)(=O)Nc2cccc(-c3ncc(C4CC4)s3)c2)c(C)cc1Cl` [Example 76, 4-chloro-N-(3-(5-cyclopropylthiazol-2-yl)phenyl)-2,5-dimethylbenzenesulfonamide], the half-maximal activity concentration (AC50) was 3 µM. Take `Cc1cc(S(=O)(=O)Nc2ccccc2-c2ncco2)c(C)cc1Cl` [Example 77, 4-chloro-2,5-dimethyl-N-(2-(oxazol-2-yl)phenyl)benzenesulfonamide]: the AC50 was greater than 100 µM. In the case of `Cc1cc(S(=O)(=O)Nc2csc(-c3ccccc3)n2)c(C)cc1Cl` [Example 81, 4-chloro-2,5-dimethyl-N-(2-phenylthiazol-4-yl)benzenesulfonamide], the concentration at half-maximal activity (AC50) came out at 2 µM. `Cc1cc(S(=O)(=O)Nc2cccc(-c3ncc(C(=O)O)s3)c2)c(C)cc1Cl` [Example 90, 2-(3-((4-chloro-2,5-dimethylphenyl)sulfonamido)phenyl) thiazole-5-carboxylic acid]: the concentration at half-maximal activity (AC50) is greater than 100 µM. Then `Cc1cc(S(=O)(=O)Nc2ccc3ccn(C)c3c2)c(C)cc1Cl` [Example 72, 4-chloro-2,5-dimethyl-N-(1-methyl-1H-indol-6-yl)benzenesulfonamide], with 98 µM; and `Cc1cnc(-c2ccccc2NS(=O)(=O)c2cc(C)c(Cl)cc2C)s1` [Example 79, 4-chloro-2,5-dimethyl-N-(2-(5-methylthiazol-2-yl)phenyl)benzenesulfonamide], with greater than 10 µM. Then `Cc1cc(S(=O)(=O)Nc2cccc(-c3ncc(CN(C)C)s3)c2)c(C)cc1Cl` [Example 87, 4-chloro-N-(3-(5-((dimethylamino)methyl)thiazol-2-yl)phenyl)-2,5-dimethylbenzenesulfonamide], with 14 µM; and `Cc1nc2cccc(NS(=O)(=O)c3cc(C)c(Cl)cc3C)c2s1` [Example 85, 4-chloro-2,5-dimethyl-N-(2-methylbenzo[d]thiazol-7-yl)benzenesulfonamide], with greater than 100 µM; and `Cc1cnc(-c2cccc(S(=O)(=O)Nc3cc(C)c(Cl)cc3C)c2)s1` [Example 78, N-(4-chloro-2,5-dimethylphenyl)-3-(5-methylthiazol-2-yl)benzenesulfonamide], with greater than 10 µM. Then `Cc1csc(-c2ccccc2NS(=O)(=O)c2cc(C)c(Cl)cc2C)n1` [Example 80, 4-chloro-2,5-dimethyl-N-(2-(4-methylthiazol-2-yl)phenyl)benzenesulfonamide], with greater than 10 µM; and `Cc1nc2ccc(NS(=O)(=O)c3cc(C)c(Cl)cc3C)cc2s1` [Example 73, 4-chloro-2,5-dimethyl-N-(2-methylbenzo[d]thiazol-6-yl)benzenesulfonamide], with 14 µM.
